{
  "source": "patent US10800752B2",
  "about": "“Substituted naphtho[2,3-b]furans as water-soluble prodrugs for preventing and/or treating cancer” (BOSTON BIOMEDICAL, INC., priority 2015, dated 2020)",
  "key": {"[1]": {"assay": "Pharmacokinetics test, intravenous administration", "conditions": "for Plasma Compound Concentration: Activated form 1 in plasma, 10.5 mg/kg (i.v.)", "quoted_text": "For water-soluble prodrugs described in the EXAMPLES, the concentration of 2-acetylnaphtho[2,3-b]furan-4,9-dione (Activated form 1) in plasma was measured. Animal species, an administration method, a method of making standard solutions, and a method of measuring the concentration in plasma are as described below.\nAnimal: Seven-week-aged male CD1 (ICR) mice were used as an experimental animal.\nAdministration method: A test substance was weighed, and then dissolved in 50 mmol/L glycine buffered saline (pH 2.0) to produce an administration solution. The body weight of a mouse was measured, and the prepared administration solution was intravenously administered.\nBlood collecting method: Heparin was added to a blood-collecting vessel, and blood was collected from a mouse. To the obtained blood, 46% of Citric acid was added in 1% volume. It was then centrifuged to obtain plasma. To the collected plasma, 1 mol/L HCl was added in 10% volume to produce a plasma sample. A sample obtained by adding 10% volume of 1 mol/L HCl to blank plasma was used as a blank sample.\nMaking of a standard solution: One mg of a test sample was weighed, and dissolved in 10 mL of acetonitrile using a measuring flask to make a standard solution of 100 ug/mL.\nMeasurement of the concentration in plasma: One hundred ug/mL of the standard solution was diluted in 50% acetonitrile solution to make calibration curve samples of target concentrations. Twenty uL of a blank sample was added to 18 uL of the calibration curve sample to make a plasma calibration curve sample. Eighteen uL of 50% acetonitrile solution was added to 20 uL of the administered plasma sample to make a sample for plasma analysis. One hundred uL of acetonitrile (containing 1% volume of 10 mol/L HCl) containing an internal standard was added to the plasma calibration curve sample and the sample for plasma analysis, respectively. It should be noted that phenytoin was used as the internal standard and its concentration was prepared in 100 nmol/L. 10 uL of each sample was analyzed with LC-MS. A calibration curve was made from a value (peak ratio) of the peak area of a test substance in MS divided by the peak area of the internal standard, and the concentrations of plasma calibration curve samples. The concentration in a sample was calculated from the peak ratio of each sample and the calibration curve."}, "[2]": {"assay": "Evaluation of a conversion rate to 2-acetylnaphtho[2,3-b]furan-4,9-dione in pH 7.4 phosphate buffer solution", "type": "physicochemical", "conditions": "Phosphate buffer solution (pH 7.4), 1 umol/L, 37° C., incubation time 120 min", "outline": "(§1)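 Compounds at 1 umol/L were incubated at 37° C in human plasma, CD1 mouse plasma or pH 7.4 phosphate buffer, sampled up to 120 minutes, acid/acetonitrile-deproteinised and analysed by LC-MS (ESI positive). Conversion (%) derived from the peak area ratio of the active form to phenytoin internal standard.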"}, "Solubility test": {"assay": "Solubility test", "conditions": "50 mmol/L glycine buffer solution (pH 2.0), room temperature, 24 hours shaking", "quoted_text": "A water-soluble prodrug was added into 50 mmol/L glycine buffer solution (pH 2.0). After shaking at room temperature for 24 hours, the mixture was filtered through a membrane filter, and then the filtrate was measured with HPLC.\nThe measurement condition of HPLC is as described below. HPLC condition column: Acquity UPLC BEH C18, 1.7 um, 50×2.1 mm"}, "Solution stability test": {"assay": "Solution stability test", "type": "physicochemical", "conditions": "for % Residual ratio: 25 umol/L", "method": "For Example 6, Example 11, and Example 22, the stability in each pH was measured. Test compounds at a concentration of 25 umol/L in respective buffer solutions prepared at pH 2.0, 3.0, 5.0, 7.4, and 9.0 were allowed to stand at 25° C. After 0, 3, 6, 9, 12, and 24 hours, they were measured with HPLC.\nThe buffer solutions used at respective pHs are as described below. pH 2.0: 50 mmol/L glycine buffer solution pH 3.0: 50 mmol/L citrate buffer solution pH 5.0: 50 mmol/L citrate buffer solution pH 7.4: 50 mmol/L phosphate buffer solution pH 9.0: 50 mmol/L glycine buffer solution\nThe measurement condition of HPLC is as described below.\nColumn temperature: 40° C.\nMobile phase: A: 0.1% trifluoroacetic acid-containing water"}, "[3]": {"assay": "Evaluation of a conversion rate to 2-acetylnaphtho[2,3-b]furan-4,9-dione in CD1 mouse plasma", "type": "in vitro ADME", "conditions": "CD1 mouse plasma, 1 umol/L, 37° C., incubation time 120 min", "outline": "as §1"}, "[4]": {"assay": "Evaluation of a conversion rate to 2-acetylnaphtho[2,3-b]furan-4,9-dione in human plasma", "type": "in vitro ADME", "conditions": "Human plasma, 1 umol/L, 37° C., incubation time 120 min", "outline": "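Compounds at 1 umol/L incubated at 37° C in human plasma, CD1 mouse plasma or pH 7.4 phosphate buffer, sampled up to 120 minutes. After acidified acetonitrile protein removal, parent loss and conversion to 2-acetylnaphtho[2,3-b]furan-4,9-dione measured by LC-MS (ESI positive).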"}},
  "data": [
    {"smiles": "COC(=O)[C@@H](N)CCNC(=O)Oc1c2ccccc2c(OC(=O)NCC[C@H](N)C(=O)OC)c2oc(C(C)=O)cc12.Cl.Cl", "note": "[Example 11]", "values": [
      {"measurement": "Plasma Compound Concentration", "setting": "[1]; 0.083 hr, animal 1", "value": 3740, "unit": "nM"},
      {"measurement": "Plasma Compound Concentration", "setting": "[1]; 0.083 hr, animal 2", "value": 4410, "unit": "nM"},
      {"measurement": "Plasma Compound Concentration", "setting": "[1]; 0.083 hr, animal 3", "value": 5290, "unit": "nM"},
      {"measurement": "Plasma Compound Concentration", "setting": "[1]; 0.083 hr, mean", "value": 4480, "unit": "nM"},
      {"measurement": "Plasma Compound Concentration", "setting": "[1]; 0.5 hr, animal 1", "value": 690, "unit": "nM"},
      {"measurement": "Plasma Compound Concentration", "setting": "[1]; 0.5 hr, animal 2", "value": 1170, "unit": "nM"},
      {"measurement": "Plasma Compound Concentration", "setting": "[1]; 0.5 hr, animal 3", "value": 1390, "unit": "nM"},
      {"measurement": "Plasma Compound Concentration", "setting": "[1]; 0.5 hr, mean", "value": 1080, "unit": "nM"},
      {"measurement": "Plasma Compound Concentration", "setting": "[1]; 1.0 hr, animal 1", "value": 420, "unit": "nM"},
      {"measurement": "Plasma Compound Concentration", "setting": "[1]; 1.0 hr, animal 2", "value": 620, "unit": "nM"},
      {"measurement": "Plasma Compound Concentration", "setting": "[1]; 1.0 hr, animal 3", "value": 630, "unit": "nM"},
      {"measurement": "Plasma Compound Concentration", "setting": "[1]; 1.0 hr, mean", "value": 560, "unit": "nM"},
      {"measurement": "Plasma Compound Concentration", "setting": "[1]; 2.0 hr, animal 1", "value": 360, "unit": "nM"},
      {"measurement": "Plasma Compound Concentration", "setting": "[1]; 2.0 hr, animal 2", "value": 280, "unit": "nM"},
      {"measurement": "Plasma Compound Concentration", "setting": "[1]; 2.0 hr, animal 3", "value": 80, "unit": "nM"},
      {"measurement": "Plasma Compound Concentration", "setting": "[1]; 2.0 hr, mean", "value": 240, "unit": "nM"},
      {"measurement": "production of 2-acetylnaphtho[2,3-b]furan-4,9-dione (Activated form 1) (in words)", "setting": "[1]; intravenously administered to mice", "value": "rapidly produced"},
      {"measurement": "% Measurement value (conversion rate to 2-acetylnaphtho[2,3-b]furan-4,9-dione)", "setting": "[2]", "value": 58, "unit": "%"},
      {"measurement": "Solubility in pH 2.0 buffer solution", "setting": "Solubility test", "value": ">5.0", "unit": "mg/mL"},
      {"measurement": "stability in solution (in words)", "setting": "Solution stability test; pH 2.0, 25° C.", "value": "very stable"},
      {"measurement": "% Residual ratio", "setting": "Solution stability test; pH 2.0, 25° C., 0 hr", "value": 100, "unit": "%"},
      {"measurement": "% Residual ratio", "setting": "Solution stability test; pH 2.0, 25° C., 3 hr", "value": 100, "unit": "%"},
      {"measurement": "% Residual ratio", "setting": "Solution stability test; pH 2.0, 25° C., 6 hr", "value": 102, "unit": "%"},
      {"measurement": "% Residual ratio", "setting": "Solution stability test; pH 2.0, 25° C., 9 hr", "value": 102, "unit": "%"},
      {"measurement": "% Residual ratio", "setting": "Solution stability test; pH 2.0, 25° C., 12 hr", "value": 104, "unit": "%"},
      {"measurement": "% Residual ratio", "setting": "Solution stability test; pH 2.0, 25° C., 24 hr", "value": 102, "unit": "%"},
      {"measurement": "stability in solution (in words)", "setting": "Solution stability test; pH 3.0, 25° C.", "value": "sufficient stability"},
      {"measurement": "% Residual ratio", "setting": "Solution stability test; pH 3.0, 25° C., 0 hr", "value": 100, "unit": "%"},
      {"measurement": "% Residual ratio", "setting": "Solution stability test; pH 3.0, 25° C., 3 hr", "value": 98.6, "unit": "%"},
      {"measurement": "% Residual ratio", "setting": "Solution stability test; pH 3.0, 25° C., 6 hr", "value": 97.3, "unit": "%"},
      {"measurement": "% Residual ratio", "setting": "Solution stability test; pH 3.0, 25° C., 9 hr", "value": 98.8, "unit": "%"},
      {"measurement": "% Residual ratio", "setting": "Solution stability test; pH 3.0, 25° C., 12 hr", "value": 94.5, "unit": "%"},
      {"measurement": "% Residual ratio", "setting": "Solution stability test; pH 3.0, 25° C., 24 hr", "value": 90.7, "unit": "%"},
      {"measurement": "% Residual ratio", "setting": "Solution stability test; pH 5.0, 25° C., 0 hr", "value": 100, "unit": "%"},
      {"measurement": "% Residual ratio", "setting": "Solution stability test; pH 5.0, 25° C., 3 hr", "value": 36.0, "unit": "%"},
      {"measurement": "% Residual ratio", "setting": "Solution stability test; pH 5.0, 25° C., 6 hr", "value": 14.0, "unit": "%"},
      {"measurement": "% Residual ratio", "setting": "Solution stability test; pH 5.0, 25° C., 9 hr", "value": 5.2, "unit": "%"},
      {"measurement": "% Residual ratio", "setting": "Solution stability test; pH 5.0, 25° C., 12 hr", "value": 0, "unit": "%"},
      {"measurement": "% Residual ratio", "setting": "Solution stability test; pH 5.0, 25° C., 24 hr", "value": 0, "unit": "%"},
      {"measurement": "% Residual ratio", "setting": "Solution stability test; pH 7.4, 25° C., 0 hr", "value": 100, "unit": "%"},
      {"measurement": "% Residual ratio", "setting": "Solution stability test; pH 7.4, 25° C., 3 hr", "value": 0, "unit": "%"},
      {"measurement": "% Residual ratio", "setting": "Solution stability test; pH 7.4, 25° C., 6 hr", "value": 0, "unit": "%"},
      {"measurement": "% Residual ratio", "setting": "Solution stability test; pH 7.4, 25° C., 9 hr", "value": 0, "unit": "%"},
      {"measurement": "% Residual ratio", "setting": "Solution stability test; pH 7.4, 25° C., 12 hr", "value": 0, "unit": "%"},
      {"measurement": "% Residual ratio", "setting": "Solution stability test; pH 7.4, 25° C., 24 hr", "value": 0, "unit": "%"},
      {"measurement": "% Residual ratio", "setting": "Solution stability test; pH 9.0, 25° C., 0 hr", "value": 100, "unit": "%"},
      {"measurement": "% Residual ratio", "setting": "Solution stability test; pH 9.0, 25° C., 3 hr", "value": 0, "unit": "%"},
      {"measurement": "% Residual ratio", "setting": "Solution stability test; pH 9.0, 25° C., 6 hr", "value": 0, "unit": "%"},
      {"measurement": "% Residual ratio", "setting": "Solution stability test; pH 9.0, 25° C., 9 hr", "value": 0, "unit": "%"},
      {"measurement": "% Residual ratio", "setting": "Solution stability test; pH 9.0, 25° C., 12 hr", "value": 0, "unit": "%"},
      {"measurement": "% Residual ratio", "setting": "Solution stability test; pH 9.0, 25° C., 24 hr", "value": 0, "unit": "%"},
      {"measurement": "% Measurement value (conversion rate to 2-acetylnaphtho[2,3-b]furan-4,9-dione)", "setting": "[3]", "value": 100, "unit": "%"},
      {"measurement": "% Measurement value (conversion rate to 2-acetylnaphtho[2,3-b]furan-4,9-dione)", "setting": "[4]", "value": 100, "unit": "%"}
    ]}
  ]
}
